Data: ChEMBL document CHEMBL1201862, “PubChem BioAssay data set” (2004)
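Where inhibition never reached the appropriate level, the endpoint shown equals the highest concentration tested. Otherwise, values were interpolated linearly from a five-concentration, 48-hour dose response in 96-well plates. Here, GI50 denotes the concentration required for 50% inhibition of growth.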 Active and inactive are the calls of the source. Rule as the data show it: active = GI50 up to about 1.1 µM and inactive = higher.

Tests used:
Experiment in all cases: NCI-60 cell line screen, 48 h
UO-31 = tested on: UO-31
HCT-116 = tested on: HCT-116
IGROV-1 = tested on: IGROV-1
SF-268 = tested on: SF-268
SR = tested on: SR
EKVX = tested on: EKVX
CAKI-1 = tested on: CAKI-1
RPMI-8226 = tested on: RPMI-8226
HOP-18 = tested on: HOP-18
MOLT-4 = tested on: MOLT-4
NCI-H226 = tested on: NCI-H226
OVCAR-5 = tested on: OVCAR-5
OVCAR-3 = tested on: OVCAR-3
OVCAR-4 = tested on: OVCAR-4
SW-620 = tested on: SW-620
ACHN = tested on: ACHN
SNB-19 = tested on: SNB-19
RXF 393 = tested on: RXF 393
UACC-62 = tested on: UACC-62
K562 = tested on: K562
KM12 = tested on: KM12
HOP-92 = tested on: HOP-92
DLD-1 = tested on: DLD-1
HCC 2998 = tested on: HCC 2998
M19-MEL = tested on: M19-MEL
SK-OV-3 = tested on: SK-OV-3
SK-MEL-2 = tested on: SK-MEL-2
HOP-62 = tested on: HOP-62
TK-10 = tested on: TK-10
HCT-15 = tested on: HCT-15
SF-295 = tested on: SF-295
SK-MEL-28 = tested on: SK-MEL-28
XF498 = tested on: XF498
U-251 = tested on: U-251
HT-29 = tested on: HT-29
LXFL 529 = tested on: LXFL 529
SF-539 = tested on: SF-539
786-0 = tested on: 786-0
HL-60 = tested on: HL-60
SK-MEL-5 = tested on: SK-MEL-5
OVCAR-8 = tested on: OVCAR-8
NCI-H522 = tested on: NCI-H522
CCRF-CEM = tested on: CCRF-CEM
DMS-114 = tested on: DMS-114
SNB-78 = tested on: SNB-78
M14 = tested on: M14
SN12C = tested on: SN12C
NCI-H23 = tested on: NCI-H23
UACC-257 = tested on: UACC-257
A549 = tested on: A549
LOX IMVI = tested on: LOX IMVI
NCI-H460 = tested on: NCI-H460
Malme-3M = tested on: Malme-3M
COLO 205 = tested on: COLO 205
KM-20L2 = tested on: KM-20L2
SNB-75 = tested on: SNB-75

COc1cc(/C=C/c2csnn2)cc(OC)c1OC
GI50 (UO-31): > 100 µM (inactive)
GI50 (HCT-116): > 100 µM (inactive)
GI50 (IGROV-1): > 100 µM (inactive)
GI50 (SF-268): 67 µM (inactive)
GI50 (SR): > 100 µM (inactive)
GI50 (EKVX): 52.2 µM (inactive)
GI50 (CAKI-1): > 100 µM (inactive)
GI50 (RPMI-8226): > 100 µM (inactive)
GI50 (HOP-18): > 100 µM (inactive)
GI50 (MOLT-4): > 100 µM (inactive)
GI50 (NCI-H226): > 100 µM (inactive)
GI50 (OVCAR-5): > 100 µM (inactive)
GI50 (OVCAR-3): > 100 µM (inactive)
GI50 (OVCAR-4): > 100 µM (inactive)
GI50 (SW-620): > 100 µM (inactive)
GI50 (ACHN): 78.3 µM (inactive)
GI50 (SNB-19): > 100 µM (inactive)
GI50 (RXF 393): > 100 µM (inactive)
GI50 (UACC-62): > 100 µM (inactive)
GI50 (K562): > 100 µM (inactive)
GI50 (KM12): > 100 µM (inactive)
GI50 (HOP-92): 66.7 µM (inactive)
GI50 (DLD-1): > 100 µM (inactive)
GI50 (HCC 2998): > 100 µM (inactive)
GI50 (M19-MEL): > 100 µM (inactive)
GI50 (SK-OV-3): > 100 µM (inactive)
GI50 (SK-MEL-2): > 100 µM (inactive)
GI50 (HOP-62): > 100 µM (inactive)
GI50 (TK-10): > 100 µM (inactive)
GI50 (HCT-15): > 100 µM
GI50 (SF-295): > 100 µM (inactive)
GI50 (SK-MEL-28): > 100 µM (inactive)
GI50 (XF498): > 100 µM (inactive)
GI50 (U-251): > 100 µM (inactive)
GI50 (HT-29): > 100 µM (inactive)
GI50 (LXFL 529): > 100 µM (inactive)
GI50 (SF-539): > 100 µM (inactive)
GI50 (786-0): > 100 µM (inactive)
GI50 (HL-60): > 100 µM (inactive)
GI50 (SK-MEL-5): > 100 µM (inactive)
GI50 (OVCAR-8): > 100 µM (inactive)
GI50 (NCI-H522): > 100 µM (inactive)
GI50 (CCRF-CEM): > 100 µM (inactive)
GI50 (DMS-114): > 100 µM (inactive)
GI50 (SNB-78): > 100 µM (inactive)
GI50 (M14): > 100 µM (inactive)
GI50 (SN12C): > 100 µM (inactive)
GI50 (NCI-H23): > 100 µM (inactive)
GI50 (UACC-257): > 100 µM (inactive)
GI50 (A549): > 100 µM (inactive)
GI50 (LOX IMVI): > 100 µM (inactive)
GI50 (NCI-H460): > 100 µM (inactive)
GI50 (Malme-3M): > 100 µM (inactive)

Cc1cc2c(=O)cc(-c3ccc(Cl)cc3Cl)oc2c(C(=O)O)c1C
GI50 (UO-31): > 100 µM (inactive)
GI50 (HCT-116): > 100 µM (inactive)
GI50 (IGROV-1): > 100 µM (inactive)
GI50 (SF-268): > 100 µM (inactive)
GI50 (EKVX): > 100 µM (inactive)
GI50 (CAKI-1): > 100 µM (inactive)
GI50 (RPMI-8226): > 100 µM (inactive)
GI50 (HOP-18): > 100 µM (inactive)
GI50 (MOLT-4): > 100 µM (inactive)
GI50 (NCI-H226): > 100 µM (inactive)
GI50 (OVCAR-5): > 100 µM (inactive)
GI50 (OVCAR-3): > 100 µM (inactive)
GI50 (OVCAR-4): > 100 µM (inactive)
GI50 (SW-620): > 100 µM (inactive)
GI50 (ACHN): > 100 µM (inactive)
GI50 (SNB-19): > 100 µM (inactive)
GI50 (RXF 393): > 100 µM (inactive)
GI50 (UACC-62): > 100 µM (inactive)
GI50 (K562): > 100 µM (inactive)
GI50 (KM12): > 100 µM (inactive)
GI50 (DLD-1): > 100 µM (inactive)
GI50 (SK-OV-3): > 100 µM (inactive)
GI50 (COLO 205): > 100 µM (inactive)
GI50 (SK-MEL-2): > 100 µM (inactive)
GI50 (TK-10): > 100 µM (inactive)
GI50 (HCT-15): > 100 µM
GI50 (SF-295): > 100 µM (inactive)
GI50 (KM-20L2): > 100 µM (inactive)
GI50 (SK-MEL-28): > 100 µM (inactive)
GI50 (XF498): > 100 µM (inactive)
GI50 (U-251): > 100 µM (inactive)
GI50 (HT-29): > 100 µM (inactive)
GI50 (LXFL 529): > 100 µM (inactive)
GI50 (SF-539): > 100 µM (inactive)
GI50 (786-0): > 100 µM (inactive)
GI50 (SK-MEL-5): > 100 µM (inactive)
GI50 (OVCAR-8): > 100 µM (inactive)
GI50 (NCI-H522): 25.3 µM (inactive)
GI50 (CCRF-CEM): > 100 µM (inactive)
GI50 (DMS-114): > 100 µM (inactive)
GI50 (SNB-78): > 100 µM (inactive)
GI50 (M14): > 100 µM (inactive)
GI50 (SN12C): > 100 µM (inactive)
GI50 (NCI-H23): > 100 µM (inactive)
GI50 (SNB-75): > 100 µM (inactive)
GI50 (UACC-257): > 100 µM (inactive)
GI50 (A549): > 100 µM (inactive)
GI50 (LOX IMVI): > 100 µM (inactive)
GI50 (NCI-H460): > 100 µM (inactive)
GI50 (Malme-3M): > 100 µM (inactive)
